Laboratory results as given in PubChem BioAssay AID1963980 (Molecular Pharmacology Branch, DTP, NCI, 2024).

Tested on: 475296-252-R-J1-PDC spheroid viability
Experiment: Anticancer human tumor 475296-252-R-J1-PDC patient-derived rectal carcinoma cell line growth inhibition [PI3K]
Conditions: spheroids with HUVEC and MSC; for IC50: curve of first compound; for viability, T/C: stronger effect = lower value
Excerpt: Combinatorial screen of targeted agents with the PI3K inhibitors inavolisib, alpelisib, duvelisib, and copanlisib in multi-cell type tumor spheroids
A high-throughput screen of multi-cell type tumor spheroids was designed to identify active combinations of targeted small molecules and PI3K pathway inhibitors. Complex spheroids include a stromal component modeled by human endothelial cells (HUVEC) and fibroblasts modeled by human mesenchymal stem cells (MSCs). The concentration ranges selected for each drug and investigational agent were based upon clinically achievable concentrations if the clinical Cmax of the agent was known.
Compounds. The drugs and investigational agents: inavolisib (NSC800729), alpelisib (NSC765974), duvelisib (NSC772469), copanlisib (NSC816437), ipatasertib (NSC767898), afuresertib (NSC778305), talazoparib (NSC767125), sapanisertib (NSC764658), selumetinib (NSC741078), tovorafenib (DAY101, NSC766906), vemurafenib (NSC761431), ravoxertinib (NSC781343), sotorasib (NSC818433), MRTX1133 (NSC 836407), abemaciclib (NSC 768073), palbociclib (NSC758247), venetoclax (NSC 766270), SY5609 (NSC837396), enzalutamide (NSC755605), and darolutamide (NSC825331), were obtained from the National Cancer Institute (NCI) Developmental Therapeutics Program Chemical Repository. The FDA-approved anticancer drug set is available from the NCI Developmental Therapeutics Program. […] The stock solutions were prepared in dimethyl sulfoxide (DMSO, Sigma-Aldrich, St. Louis, MO, cat. D2650) at 800-fold the tested concentration and stored at -70 degrees C prior to their use. All drugs and investigational agents were tested over a range starting from a high concentration at or near the clinical Cmax and decreasing in half-log increments. If the clinical Cmax for an agent had not been determined, the highest concentration tested was 10 microM.
Cell Culture. All cells were maintained in an incubator at 37 degrees C and 5% CO2 with 95% humidity. The PDC lines were cultured according to standard operating procedures established by the NCI PDMR (https://pdmr.cancer.gov/sops/default.htm). All PDCs were thawed and cultured in Matrigel-coated flasks prepared with a working solution of 1X Ham's F-12 nutrient mix, without supplementation (Invitrogen, Waltham, MA, cat. 11765054), 100 U/mL penicillin-streptomycin (Invitrogen, cat. 15140122), and 2.5% Matrigel (Corning Inc., Corning, NY, cat. 354248) for the first three passages. The 354836-022-R-J1-PDC, 475296-252-R-J1-PDC, and 997726-040-R-J2-PDC lines were cultured in 6A media, which includes advanced DMEM/F-12 (Thermo Fisher Scientific, cat. 12634028), 10 mM HEPES (Thermo Fisher Scientific, cat. 15630080), 1X GlutaMAX supplement (Thermo Fisher Scientific, cat. 35050061), 0.1 mg/mL primocin (InvivoGen, San Diego, CA, cat. ant-pm-2), 10% defined fetal bovine serum, heat inactivated (HyClone Laboratories Inc., Logan, UT, cat. SH30070.03HI), 50% L-WRN conditioned media (ATCC, cat. CRL-3276), 1.25 mM N-Acetyl-L-cysteine (Sigma-Aldrich, cat. A9165), 10 mM nicotinamide (Sigma-Aldrich, cat. N0636), 1X B-27 supplement (Thermo Fisher Scientific, cat. 17504044), 1X N-2 supplement (Thermo Fisher Scientific, cat. 17502048), and 10 microM Y-27632 dihydrochloride (Tocris Bioscience, Bristol, United Kingdom, cat. 1254). The 624824-186-R-J2-PDC line was cultured in 6C/Colon 1B media, which includes all 6A media components plus 50 ng/mL human EGF recombinant protein (Thermo Fisher Scientific, cat. PHG0311). […]

[1] = second compound 0.0316 µM, first compound 0.00316 µM
[2] = second compound 0.0316 µM, first compound 0.01 µM
[3] = second compound 0.0316 µM, first compound 0.0316 µM
[4] = second compound 0.0316 µM, first compound 0.1 µM
[5] = second compound 0.1 µM, first compound 0.00316 µM
[6] = second compound 0.1 µM, first compound 0.01 µM
[7] = second compound 0.1 µM, first compound 0.0316 µM
[8] = second compound 0.1 µM, first compound 0.1 µM
[9] = second compound 0.316 µM, first compound 0.00316 µM
[10] = second compound 0.316 µM, first compound 0.01 µM
[11] = second compound 0.316 µM, first compound 0.0316 µM
[12] = second compound 0.316 µM, first compound 0.1 µM
[13] = second compound 1 µM, first compound 0.00316 µM
[14] = second compound 1 µM, first compound 0.01 µM
[15] = second compound 1 µM, first compound 0.0316 µM
[16] = second compound 1 µM, first compound 0.1 µM
[17] = second compound 3.16 µM, first compound 0.00316 µM
[18] = second compound 3.16 µM, first compound 0.01 µM
[19] = second compound 3.16 µM, first compound 0.0316 µM
[20] = second compound 3.16 µM, first compound 0.1 µM
[21] = second compound 10 µM, first compound 0.00316 µM
[22] = second compound 10 µM, first compound 0.01 µM
[23] = second compound 10 µM, first compound 0.0316 µM
[24] = second compound 10 µM, first compound 0.1 µM
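Further: spheroids exposed to agents for seven days before readout.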

CC(C)n1nc(-c2ccc3oc(N)nc3c2)c2c(N)ncnc21 + Cc1nc(NC(=O)N2CCCC2C(N)=O)sc1-c1ccnc(C(C)(C)C(F)(F)F)c1
IC50 (second compound 0.0316 µM): > 100 nM | IC50 (second compound 0.1 µM): > 100 nM | IC50 (second compound 0.316 µM): > 100 nM | IC50 (second compound 1 µM): > 100 nM | IC50 (second compound 3.16 µM): > 100 nM | IC50 (second compound 10 µM): > 100 nM | viability, T/C (second compound 0.0316 µM, first compound 0.000316 µM): 93.5% | viability, T/C (second compound 0.0316 µM, first compound 0.001 µM): 95.3% | viability, T/C [1]: 93.1% | viability, T/C [2]: 88.4% | viability, T/C [3]: 83.9% | viability, T/C [4]: 64.1% | viability, T/C (second compound 0.1 µM, first compound 0.000316 µM): 92.1% | viability, T/C (second compound 0.1 µM, first compound 0.001 µM): 98% | viability, T/C [5]: 95.2% | viability, T/C [6]: 84.5% | viability, T/C [7]: 76.8% | viability, T/C [8]: 62% | viability, T/C (second compound 0.316 µM, first compound 0.000316 µM): 97.1% | viability, T/C (second compound 0.316 µM, first compound 0.001 µM): 95.4% | viability, T/C [9]: 85% | viability, T/C [10]: 92.8% | viability, T/C [11]: 85.9% | viability, T/C [12]: 59.9% | viability, T/C (second compound 1 µM, first compound 0.000316 µM): 89.8% | viability, T/C (second compound 1 µM, first compound 0.001 µM): 106% | viability, T/C [13]: 87.3% | viability, T/C [14]: 91.9% | viability, T/C [15]: 70.2% | viability, T/C [16]: 57.1% | viability, T/C (second compound 3.16 µM, first compound 0.000316 µM): 83.4% | viability, T/C (second compound 3.16 µM, first compound 0.001 µM): 86% | viability, T/C [17]: 88.4% | viability, T/C [18]: 77.5% | viability, T/C [19]: 82.3% | viability, T/C [20]: 54.3% | viability, T/C (second compound 10 µM, first compound 0.000316 µM): 91.1% | viability, T/C (second compound 10 µM, first compound 0.001 µM): 85.1% | viability, T/C [21]: 83.8% | viability, T/C [22]: 89.2% | viability, T/C [23]: 86.5% | viability, T/C [24]: 54.4%

CCN1CCN(Cc2ccc(Nc3ncc(F)c(-c4cc(F)c5nc(C)n(C(C)C)c5c4)n3)nc2)CC1 + CC(Nc1ncnc2nc[nH]c12)c1cc2cccc(Cl)c2c(=O)n1-c1ccccc1
IC50 (second compound 0.0316 µM): > 1000 nM | IC50 (second compound 0.1 µM): > 1000 nM | IC50 (second compound 0.316 µM): > 1000 nM | IC50 (second compound 1 µM): > 1000 nM | IC50 (second compound 3.16 µM): > 1000 nM | IC50 (second compound 10 µM): > 1000 nM | viability, T/C [1]: 87% | viability, T/C [2]: 101% | viability, T/C [3]: 99.6% | viability, T/C [4]: 86.1% | viability, T/C (second compound 0.0316 µM, first compound 0.316 µM): 104% | viability, T/C (second compound 0.0316 µM, first compound 1 µM): 92% | viability, T/C [5]: 87.8% | viability, T/C [6]: 90.9% | viability, T/C [7]: 103% | viability, T/C [8]: 102% | viability, T/C (second compound 0.1 µM, first compound 0.316 µM): 105% | viability, T/C (second compound 0.1 µM, first compound 1 µM): 89.1% | viability, T/C [9]: 95.1% | viability, T/C [10]: 102% | viability, T/C [11]: 98.3% | viability, T/C [12]: 101% | viability, T/C (second compound 0.316 µM, first compound 0.316 µM): 89.4% | viability, T/C (second compound 0.316 µM, first compound 1 µM): 81.2% | viability, T/C [13]: 102% | viability, T/C [14]: 92.3% | viability, T/C [15]: 93.8% | viability, T/C [16]: 98.5% | viability, T/C (second compound 1 µM, first compound 0.316 µM): 94.6% | viability, T/C (second compound 1 µM, first compound 1 µM): 75.1% | viability, T/C [17]: 87.2% | viability, T/C [18]: 99.3% | viability, T/C [19]: 85.1% | viability, T/C [20]: 102% | viability, T/C (second compound 3.16 µM, first compound 0.316 µM): 92.1% | viability, T/C (second compound 3.16 µM, first compound 1 µM): 79.5% | viability, T/C [21]: 95.5% | viability, T/C [22]: 82.4% | viability, T/C [23]: 87.4% | viability, T/C [24]: 101% | viability, T/C (second compound 10 µM, first compound 0.316 µM): 96.9% | viability, T/C (second compound 10 µM, first compound 1 µM): 70.5%
